The test system of experiment [1] is C. neoformans. Conditions: cited from earlier work; for MIC50 against C. neoformans, alone / concentration in the combination of ibuprofen and ITR: ref 17 (Rocha et al.); for concentration in the combination of ibuprofen and ITR: ibuprofen combined with ITR. The text has this: For example, […] et al. reported the combined activity against C. neoformans of the aminoglycoside K20 with ITR. […] In contrast, when combined, the concentration to reach the same activity decreases to 187 and 1 for K20 and ITR [16]. In another study, Rocha et al. evaluated the synergistic effect between ibuprofen and ITR against C. neoformans. […] However, the co ...

Experiment [2] deals with C. neoformans cells. As to the kind of experiment: Cell membrane integrity / membrane pore formation (propidium iodide uptake, fluorescence microscopy, ImageJ counting). The format is cell-based, Cryptococcus neoformans. Here is the method: The cell membrane integrity of C. neoformans was evaluated as described in [7]. After incubation for 24 h, as described above, the samples were washed three times with sterile 0.15 M NaCl and centrifuged (5000× g 5 min at 4 °C) to remove the YPD medium. Then, the cells were incubated with propidium iodide (PI) for 30 min in the dark at room temperature (22 °C ± 2). Next, they were washed and centrifuged twice, under the same conditions as previously mentioned. […] The fluorescent C. neoformans cells were counted using ImageJ software using the Cell Counter plugin, according to the methodology described by Aguiar et al. […] The cells were counted in the bright and fluorescent field of the same picture. Cells presenting fluorescence were called positive cells, and those without fluorescence were called negative cells. […] The cells were calculated using the equation: number of positive cells × 100/number of cells in the bright field. The number of negative cells was calculated following the equation: number of cells in the bright field—number of positive cells. Three different images were used to count the cells.

The test system of experiment [3] is C. neoformans (ATCC 32045). As to the kind of experiment: Combined antifungal activity (growth inhibition, absorbance 600 nm). The format is cell-based, Cryptococcus neoformans. Conditions: YPD, 10^6 cells mL^−1, 24 h, 30 °C, A600, mean ± SD. Here is the method:
The combined antifungal activity was evaluated as described in [11]. The combinations with SAMPs and itraconazole were constituted of peptides MIC50 [7] + itraconazole (ITR) 500 (1×) µg mL^−1, peptides [5×D] + ITR [1×D], peptides [10×D] + ITR [5×D], and peptides [10×D] + ITR [10×D]. The cells were grown on YPD agar for […], and cryptococcal cells were then resuspended in YPD medium and standardized at 10^6 cells mL^−1. The assay was performed in 96-well plates and incubated for 24 h at 30 °C. Then, the absorbance was measured at 600 nm using an automated microplate reader (Epoch, Biotek, Santa Clara, CA, USA). The best combinations were used to study the mechanisms of action. […] Experiments were performed in three biological replications, and each biological replication was performed with three technical replicates. The statistical analyses were performed using GraphPad Prism (version 5.01) for Microsoft Windows. All data obtained in the assays were compared using standard deviation and the one-way analysis of variance (ANOVA), followed by the Tukey test (p < 0.05).

For experiment [4], the system named is C. neoformans cells. As to the kind of experiment: Overproduction of reactive oxygen species (DCFH-DA, fluorescence microscopy, ImageJ counting). The format is cell-based, Cryptococcus neoformans. Here is the method: The ROS overproduction was evaluated according to the method Dias et al.. After incubation for 24 h, as described above, the samples were washed three times with sterile 0.15 M NaCl and centrifuged (5000× g 5 min at 4 °C) to remove the YPD medium. The analysis was conducted, as described, by PI assay. Next, 9 μL of 2',7' […] diacetate-DCFH-DA (Sigma, St. Louis, MI, USA)-was added and incubated in the dark for 30 min at room temperature (22 °C ± 2). Next, they were washed and centrifuged twice under the same conditions as those mentioned above. Then, the cryptococcal cells were observed under a fluorescence microscope (Olympus System BX 41, Tokyo, Japan), with an excitation wavelength of 488 nm and an emission wavelength of 525 nm. The fluorescent C. neoformans cells were counted using ImageJ software using the Cell Counter plugin, according to the methodology described by Aguiar et al.. The cells were counted in the bright and fluorescent field of the same picture. Cells presenting fluorescence were called positive cells, and those without fluorescence were called negative cells. […] The cells were calculated using the equation: number of positive cells × 100/number of cells in the bright field. The number of negative cells was calculated following the equation: number of cells in the bright field-number of positive cells. Three different images were used to count the cells.

Experiment [5] deals with C. neoformans. Also on record: method as in earlier work. Conditions: previously defined; ref 7 (Aguiar et al.); cited from earlier work.

Values after ≈ are worked out from the molar mass of the structure shown.

Regarding `CCC(C)n1ncn(-c2ccc(N3CCN(c4ccc(OCC5COC(Cn6cncn6)(c6ccc(Cl)cc6Cl)O5)cc4)CC3)cc2)c1=O` (centres unmarked) [ITR, itraconazole], the “concentration to reach the same activity when combined” value with C. neoformans [1] (K20 combined with ITR, unit not given, ref 16 (Shrestha et al.)) is given as 1. The “concentration presenting activity against C. neoformans, alone” value with C. neoformans [1] (agent alone, ref 16 (Shrestha et al.)) is 780 µg/mL. The “MIC50 against C. neoformans, alone” value in the experiment with C. neoformans [1] (agent alone) was 500 µg/mL. For the same molecule, the “concentration in the combination of ibuprofen and ITR” value in the experiment on C. neoformans [1] was 125 µg/mL. Also, the “positive PI-fluorescent cells” value with C. neoformans cells [2] (ITR alone (dilution not given; ITR 1× in Figure 1 text), ImageJ count of three images) came out at 0%. Moreover, in the experiment with C. neoformans cells [2] (single agent at 1×, fluorescence images, Figure 1), the “membrane pore formation (PI red fluorescence), qualitative” value is reported as “no red fluorescence”. In addition, the “% of Inhibition of C. neoformans Growth” value in experiment [3] (single agent at 1× (ITR 500; Mo-CBP3-PepII 25; RcAlb-PepII, RcAlb-PepIII, PepGAT, PepKAA 0.04 µg mL^−1)) is 45.3 ± 0.021%; in experiment [3] (single agent at 5×D (ITR 100; Mo-CBP3-PepII 5; other peptides 0.008 µg mL^−1)), 12.2 ± 0.003%; in experiment [3] (single agent at 10×D (ITR 50; Mo-CBP3-PepII 2.5; other peptides 0.004 µg mL^−1)), 0%. Also, the DCFH-DA-fluorescent cells with C. neoformans cells [4] (ITR alone (dilution not stated), ImageJ count of three images) is reported as 0%. In addition, in the experiment on C. neoformans cells [4] (ITR alone, fluorescence images, Figure 2), the “ROS accumulation (DCFH-DA fluorescence), qualitative” value is recorded as “no ROS accumulation”. Moreover, the “MIC50 against C. neoformans” value in the experiment on C. neoformans [5] is 500 µg/mL (≈ 709 µM).
Turning to `CC(C)Cc1ccc(C(C)C(=O)O)cc1` (centres unmarked) [ibuprofen], the “MIC50 against C. neoformans, alone” value in the experiment on C. neoformans [1] (agent alone) is 512 µg/mL. In addition, the “concentration in the combination of ibuprofen and ITR” value in the experiment with C. neoformans [1] is 16 µg/mL.

(Values after article PMC9952215, “Giving a Hand: Synthetic Peptides Boost the Antifungal Activity of Itraconazole against Cryptococcus neoformans” (Antibiotics, 2023).)
